US10098895B2, “Treatment of symptoms related to neurodegenerative disorders through pharmacological dermal activation of cranial nerves” (GLIA, LLC, priority 2016, dated 2018)
Entries after “also recorded” stand apart in the source; their conditions may differ.

Key:
[1] = system: Parkinson's disease symptoms; assay: Example 1: Parkinson's disease patient, dermal application to forehead and ear conchae
Method: A person was diagnosed with the early stages of Parkinson's disease in December of 2014. Their symptoms included tremors in the hands, impaired short term memory, slow and uncontrolled rigid movements while walking and eating, and declining ocular blink function. The patient also had dry eyes with hyper-tearing, burning, and itching.
The patient was also treated with progesterone 1% on the forehead initially once daily beginning in March 2015. […] The progesterone was applied as needed for about a year.
Instead of the prescribed regimen, the patient began dermal application of dronabinol 1.25 mg 2 times daily to three sites: (i) the forehead, (ii) the concha of the left ear, and (iii) the concha of the right ear. Each dose of 1.25 mg was divided equally between the three application sites. This treatment regimen began Friday Jun. 10, 2016 concurrent with the discontinuation of rasagiline.
In February 2017, the patient, who suffers from debilitating moderate spinal stenosis, started taking Azilect (rasagiline) and carbidopa-levodopa to improve their walking and flexibility. […] The patient decided that, together with the prescribed medications, they would switch from dronabinol to topical testosterone gel applied to the forehead and ear conchae to see if this would impact their longstanding low testosterone levels.
In March 2017, topical testosterone gel application was instituted as an adjunct to is the prescribed Azilect and carbidopa-levodopa.
The patient voluntarily stopped topical testosterone for 3 weeks in June 2017. […] At the end of 3 weeks, topical testosterone was re-instituted as an adjunct to the prescribed medications.

[2] = system: Parkinson's tremor and ocular graft-versus-host disease; assay: Example 3: Parkinson's tremor and co-morbid ocular graft-versus-host disease, topical progesterone; format: in vivo, human
From the text: A person was diagnosed with Parkinson's disease over 3 years ago, leukemia about 2 years ago, and ocular graft versus host disease resulting from allogeneic stem cell treatment for the leukemia. The patient has been on oral carbidopa-levodopa for at least 2 years.
The patient started treatment with twice daily progesterone 1% gel applied to the forehead to promote ocular secretion of tear film, and to resolve other symptoms and signs of surface eye disease. […] On a follow up visit 5 weeks later, they reported continued relief from burning and photophobia.
When the patient was first seen in June 2016, they had noticeable significant tremors in both hands and multiple fingers. These were related to their Parkinson's disease as diagnosed and included muscle contractions, i.e., dyskinesia, related to their carbidopa-levodopa oral treatment.
During the 5-week ophthalmologist follow-up visit, the progesterone treatment regimen was performed in the office in modified form. More specifically, the daily dose of progesterone was divided, with 1 mg applied to the concha of each ear, excluding the forehead, to which progesterone had been applied 6 hours earlier. The patient reported improved moisture and comfort in both eyes approximately 2 minutes post application.
The patient had taken carbidopa-levodopa extended release medication at 6 am that morning, with an added immediate release dose at 8 am. The visit to the ophthalmologist was at 2 pm. At that point there was uncontrolled movement of the hands (dyskinesia) along with finger vibrations. The patient reported that the usual duration of efficacy of their carbidopa-levodopa regimen was 4 hours. Normally they would have taken another carbidopa-levodopa dose at 2 pm. Instead, progesterone was applied to the concha of both ears as described, supra.

[3] = system: c-Fos-positive neurons of the spinal trigeminal nucleus; assay: Example 10: effect of topical progesterone on neural c-Fos expression in rat brainstem; format: in vivo; conditions: progesterone 1% on the forehead, less than 0.2 mg per dose, two hours later
Method: A study was conducted in a rat model using the same formulation of progesterone and the same route of administration as had been used by the individuals in the preceding examples. In the study, 7 rats were treated with progesterone 1% on the forehead, estimated to be less than 0.2 mg per dose, and 6 rats received placebo. Two hours later the animals were perfused and brainstems removed. Brainstem tissues were processed for immunohistochemistry using an anti-c-Fos antibody to identify c-Fos protein in cell nuclei that can be counted to assess the activity of c-Fos-positive neurons. Two regions of the spinal trigeminal nucleus were examined: (i) rostral spinal trigeminal nucleus (Vsp) subnucleus interpolaris/subnucleus caudalis (Vi/Vc) region and (ii) caudal Vsp subnucleus caudalis/cervical 1 (Vc/C1) region. […] The rat model confirmed forehead application of progesterone signaled the neurons responsible for activation of tear film production. Various authors and experiments had confirmed the role of neurons in the rostral subnucleus interpolaris (Vi/Vc) and caudalis (Vc/C1) region of brain stem within the spinal trigeminal nucleus (Vsp), a major termination zone for trigeminal sensory fibers, to innervate the eye. When cFos genes in these neurons are activated, cFos proteins are produced that can be stained to count the number of activated neurons. (Meng et al., 1996; Meng et al., 2013).

[4] = system: ocular discomfort, tear film production, tremor; assay: Summary of human examples: onset, duration of efficacy and tolerance; format: in vivo; conditions: progesterone USP 0.5 to 1 mg per dose, aqueous formulation, to the forehead; all human examples
From the text: Additional findings are that very small doses in contrast to what is required in systemic delivery are required once or twice daily, but the pharmacological agents must be applied in such a manner, and from specified formulations, so that they penetrate to the epidermis. It is unnecessary to go deeper than the epidermis, or to be absorbed into the blood circulation. Thus there are no blood brain barrier issues. […] The activation appears to be remote and not proximate innervation by the agents themselves. A further finding is that there has been no buildup of tolerance after months and years of use.
All human examples of neurodegenerative disorder, Parkinson's, essential tremor, herpes ophthalmicus and chronic ocular graft-versus-host disease, had ocular discomfort and signs and symptoms that were treated by low dose progesterone USP, 0.5 to 1 mg per dose, applied in an aqueous formulation to the forehead. […] The afferent nerve accessed is CN V trigeminal nerve but the efferent parasympathetic signaling was via CN VII facial nerve and a branch the greater petrosal nerve that synapses in the pterygopalatine ganglion to innervate tear film secretion. […]
Another surprising observation is that the duration of efficacy is at least 12 hours with the easily monitored parameters such as ocular comfort, tear film production, or tremor reduction.

CC(=O)[C@H]1CC[C@H]2[C@@H]3CCC4=CC(=O)CC[C@]4(C)[C@H]3CC[C@]12C [progesterone]
adverse events ([1]; human, in vivo): no adverse events were noted
ocular symptoms of burning and itching ([1]; progesterone 1% on the forehead, initially once daily, then as needed, on oral rasagiline): relieved their ocular symptoms of burning and itching
dry eye disease symptoms ([1]; progesterone 1% to the forehead once every week, July 2016 to August 2017): fully manage dry eye disease symptoms
onset of tremor cessation ([2]; low dose progesterone USP added to conchae of outer ears): rapid cessation of tremor within minutes
time to improved moisture and comfort in both eyes ([2]; progesterone 1 mg to the concha of each ear): approximately 2 minutes
reduction of tremors in hands and fingers in frequency and amplitude ([2]; progesterone 1 mg to the concha of each ear, 2 minutes post application): about 90%
tear film secretion ([2]; progesterone 1% gel twice daily to forehead, after initial treatment): tear film secretion was improved
photophobia and burning ([2]; progesterone 1% gel twice daily to forehead, after initial treatment, on oral carbidopa-levodopa): immediate relief of photophobia and burning
facial masking and facial expression ([2]; progesterone applied to ear conchae regions): decreased facial masking and more voluntary facial expressions
hand and finger tremors ([2]; progesterone applied to the forehead only, 5 weeks): no change seen in the hand and finger tremors
tremor ([2]; topical progesterone to both conchae and forehead, carbidopa-levodopa at lower dosing frequency, 5 days): remained tremor-free until the subsequent visit 5 days later
number of activated (c-Fos-positive) neurons in the Vc/C1 region, compared to placebo [3]: but not the Vc/C1 region
number of activated (c-Fos-positive) neurons in the Vi/Vc region, compared to placebo ([3]; 7 rats vs 6 placebo): significantly greater number of activated neurons; also recorded: significant increase in activated neurons
duration of ocular comfort per dose [4]: at least 12 hours
time to ocular comfort and tear film secretion [4]: within a few minutes
